In patent US11548901B2, “Substituted 1,4-methanopyrido[1′,2′:4,5]pyrazino[1,2-a]pyrimidines for treating viral infections” (Gilead Sciences, Inc., priority 2012, dated 2023):

Tested on: HIV-IIIb
Experiment: Antiviral assay in MT4 cells
Format: cell-based
Conditions: Human immunodeficiency virus 1, IIIB, MT4, 120 h, read-out: EC50 nM in MT-4
Description: For the antiviral assay utilizing MT4 cells, 0.4 μL of […] test concentration of 3-fold serially diluted compound in DMSO was added to 40 μL of cell growth medium (RPMI 1640, 10% FBS, 1% penicilline/Streptomycine, 1% L-Glutamine, 1% HEPES) in each well of 384-well assay plates (10 concentrations) in quidruplicate.
1 mL aliquots of 2×10^6 MT4 cells are pre-infected for 1 and 3 hours respectively at 37° C. with 25 μL (MT4) or of either cell growth medium (mock-infected) or a fresh 1:250 dilution of an HIV-IIIb concentrated ABI stock (0.004 m.o.i. for MT4 cells). Infected and uninfected cells are diluted in cell growth medium and 35 μL of 2000 (for MT4) cells is added to each well of the assay plates.
Assay plates were then incubated in a 37° C. incubator. […] Cell lysis was carried out by incubating at room temperature for 2-3 minutes, and then chemiluminescence was read using the Envision reader (PerkinElmer).

CC1CC2CC1OC1Cn3cc(C(=O)NCc4ccc(F)cc4F)c(=O)c(O)c3C(=O)N21 (single isomer, unassigned) [Compound 40]
EC50: 2.4 nM
